Measurements reported in US6455528B1, “Piperazine compounds and medicinal use thereof” (Mitsubishi Pharma Corporation, priority 1997, dated 2002).
Structures can show the parent of a compound that is named as a salt.

Columns and labels:
TNF-α production = assay: Effect on TNF-α production in mice (in vivo), LPS-induced; details: serum TNF-α 90 min after LPS 500 μg/kg i.p.; test compound orally 30 min before LPS; ratio relative to test compound non-administration group
Procedure: (§1) Since the TNF-α concentration in serum reaches a peak at 90 min after LPS administration, the TNF-α concentration in the serum at this point was measured using FACTOR TEST mTNF-α (manufactured by Genzyme) and the IL-10 concentration at the same point of time was also measured using Murine IL-10 ELISA Kit (manufactured by Endogen). […] The effect of the test compound on the TNF-α production and IL-10 production was calculated by the following formula as the ratio relative to the test compound non-administration group.

IL-10 production = assay: Effect on IL-10 production in mice (in vivo), LPS-induced; details: serum IL-10 90 min after LPS 500 μg/kg i.p.; test compound orally 30 min before LPS; ratio relative to test compound non-administration group
Procedure: as §1

For `CC(=O)NCc1ccc(CN2CCN(c3nccs3)CC2)cc1` [Example 81, N-(4-((4-(Thiazol-2-yl)piperazin-1-yl)methyl)phenylmethyl)acetamide Hydrochloride 1/2 Hydrate], the “TNF-α production (%)” value (TNF-α production) was 11% and the “IL-10 production (%)” value (IL-10 production) was 1035%.
With `CC(=O)NC(C)(C)c1ccc(CN2CCN(c3ccc(F)cc3)CC2)cc1` [Example 51, N-(1-Methyl-1-(4-((4-(4-fluorophenyl)-piperazin-1-yl)methyl)phenyl)ethyl)acetamide] the melting point was 104.5 to 106 °C, the “TNF-α production (%)” value (TNF-α production) was 16% and the “IL-10 production (%)” value (IL-10 production) was 533%.
In the case of `CC(=O)NCc1ccc(CN2CCN(c3ccccn3)CC2)cc1` [Example 82, N-(4-((4-(Pyridin-2-yl)piperazin-1-yl)methyl)phenylmethyl)acetamide], the melting point is reported as 100 to 101 °C, the “TNF-α production (%)” value (TNF-α production) is reported as 11% and the “IL-10 production (%)” value (IL-10 production) is reported as 742%.
For `CC(=O)NC(C)c1ccc(CN2CCN(c3ccc(F)cc3)CC2)cc1` (centres unmarked) [Example 48, N-(1-(4-((4-(4-Fluorophenyl)piperazin-1-yl)methyl)phenyl)ethyl)acetamide], the melting point was 101 to 103 °C, the “TNF-α production (%)” value (TNF-α production) was 12% and the “IL-10 production (%)” value (IL-10 production) was 888%.
With `CC(=O)NCc1ccc(CN2CCN(c3ncccn3)CC2)cc1` [Example 72, N-(4-((4-(Pyrimidin-2-yl)piperazin-1-yl)methyl)phenylmethyl)acetamide] the melting point was 120 to 121 °C, the “TNF-α production (%)” value (TNF-α production) was 20% and the “IL-10 production (%)” value (IL-10 production) was 510%.
